From patent US9732063B2, “Kinase inhibitors” (RESPIVERT LIMITED, priority 2012, dated 2017)
Where two headings read alike, the source gives them in different places.

Legend:
TNBS-induced colitis = conditions: for inflammatory cell infiltrate in the reticular and laminar propria zone / ulcer grade and epithelial repair compared to the vehicle control: dosed orally at either 1 or 5 mg/kg; for LP inflammation / Ulcer grade: oral gavage BID, conducted over 2 days, mice
Description: On Day 0 of the study TNBS (200 μL) is administered intra-colonically via a plastic catheter followed by BID dosing of the vehicle, reference or test compound for 2 or 4 days. During the study animals are weighed every day and stool observations are made and recorded as a score, based on stool consistency. At the time of sacrifice on Day 2 (or Day 4) the large intestine is removed and the length and weight recorded. Sections of the colon are taken for either MPO analysis to determine neutrophil infiltration or for histopathology involving scoring to determine disease severity.

PBMCs [1] = test: LPS-induced TNFα/IL-8 release in PBMC cells; assay type: cell-based; conditions: Homo sapiens
How it was run: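 TNFα and IL-8 in supernatants were measured by sandwich ELISA after 24 h of 1 ng/mL LPS (E. coli O111:B4) at 37 °C, 5% CO2. Test compounds were added 2 h before LPS to PBMCs from healthy subjects, separated on a density gradient.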

Syk = Syk (Homo sapiens (Human), UniProt P43405); test: Syk enzyme inhibition (Z-LYTE FRET); assay type: biochemical
How it was run: (§1)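 2 hr RT enzyme + cpd (added solns 4/0.4/0.04/0.004 μg/mL); + FRET peptide (8 μM soln) + ATP soln (c-Src 800 μM, Syk 60 μM), 1 hr; protease development 1 hr; read donor/acceptor emission ratio.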

[2] = tested on: intestinal mucosa biopsies from the inflamed regions of the colon; test: Human biopsy assay (intestinal mucosa biopsies of ulcerative colitis patients); assay type: cell-based; conditions: 24 hours; for cytokine (IL-1β, IL-6 and IL-8) release compared to the DMSO control: 1 μg/mL, biopsies from ulcerative colitis patients; for IL-1β release / IL-6 release / IL-8 release: 1 μg/ml, biopsies of UC patients, DMSO control = 100%
Description: Intestinal mucosa biopsies are obtained from the inflamed regions of the colon of IBD patients. […] DMSO control or test compounds at the desired concentration are added to the tissue and incubated for 24 hr in the organ culture chamber. The supernatant is harvested for determination of IL-6, IL-8, IL-1β and TNFα levels by R&D ELISA.

c-Src = c-Src (Homo sapiens (Human), UniProt P12931); test: c-Src enzyme inhibition (Z-LYTE FRET); assay type: biochemical
How it was run: as §1

PBMCs [3] = test: IL-2 and IFN gamma release in CD3/CD28 stimulated PBMC cells; assay type: cell-based; conditions: Homo sapiens
How it was run: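 They were cultured with compound for 3 days. IL-2 and IFN-γ in supernatants were quantified by sandwich ELISA, and IC50 was derived from the dose-response curve.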

HT29 cells = test: IL-1β-induced IL-8 release in HT29 cells; assay type: cell-based; conditions: Homo sapiens, HT-29, read-out: IC50 Values for Inhibition of Cytokine Release HT29 cells IL-8
Description: HT29 cells, a human colon adenocarcinoma cell line, are plated in a 96 well plate (24 hrs) and pre-treated with compounds at the desired concentration for 2 hours before addition of 5 ng/mL of IL-1β (Abcam) for 24 hours. Supernatants are harvested for IL-8 quantification by Sandwich ELISA (Duo-set, R&D System). The IC50 is determined from the dose response curve.

p38 MAPKα = p38 MAPKα (Homo sapiens (Human), UniProt Q16539); test: p38 MAPKα enzyme inhibition (Z-LYTE FRET, Method 2); assay type: biochemical
d-U937 cells = test: LPS-induced TNFα/IL-8 release in d-U937 cells; assay type: cell-based; conditions: Homo sapiens
GSK3α = GSK3α (Homo sapiens (Human), UniProt P49840); test: GSK 3α enzyme inhibition (Z-LYTE FRET, Method 2); assay type: biochemical
How it was run: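 Z-LYTE FRET: GSK3α preincubated with compound 2 h at RT, then FRET peptide and ATP added (stocks 8 μM and 40 μM) for 1 h, followed by 1 h protease development. Compound stocks 4–0.004 μg/mL; phosphorylation from coumarin/fluorescein emission ratio.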

[4] = read-out: IC50 Values for Inhibition of Cytokine Release PBMCs IL-8
[5] = read-out: IC50 Values for Inhibition of Cytokine Release PBMCs TNFα
[6] = read-out: IC50 Values for Inhibition of Cytokine Release PBMCs IFNγ
[7] = read-out: IC50 Values for Inhibition of Cytokine Release PBMCs IL-2
[8] = dU937, read-out: IC50 Values for Inhibition of Cytokine Release dU937 cells IL-8
[9] = dU937, read-out: IC50 Values for Inhibition of Cytokine Release dU937 cells TNFα

Sequence of p38 MAPKα (Q16539 whole entry): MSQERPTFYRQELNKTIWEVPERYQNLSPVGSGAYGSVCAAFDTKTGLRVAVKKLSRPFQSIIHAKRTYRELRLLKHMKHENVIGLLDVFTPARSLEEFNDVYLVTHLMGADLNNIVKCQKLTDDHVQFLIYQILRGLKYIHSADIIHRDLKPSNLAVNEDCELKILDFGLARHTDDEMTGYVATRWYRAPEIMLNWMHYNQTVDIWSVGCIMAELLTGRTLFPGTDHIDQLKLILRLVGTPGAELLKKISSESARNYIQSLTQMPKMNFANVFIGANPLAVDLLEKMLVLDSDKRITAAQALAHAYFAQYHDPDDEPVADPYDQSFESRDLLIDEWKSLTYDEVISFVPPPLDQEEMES
Sequence of c-Src (P12931 whole entry, looked up): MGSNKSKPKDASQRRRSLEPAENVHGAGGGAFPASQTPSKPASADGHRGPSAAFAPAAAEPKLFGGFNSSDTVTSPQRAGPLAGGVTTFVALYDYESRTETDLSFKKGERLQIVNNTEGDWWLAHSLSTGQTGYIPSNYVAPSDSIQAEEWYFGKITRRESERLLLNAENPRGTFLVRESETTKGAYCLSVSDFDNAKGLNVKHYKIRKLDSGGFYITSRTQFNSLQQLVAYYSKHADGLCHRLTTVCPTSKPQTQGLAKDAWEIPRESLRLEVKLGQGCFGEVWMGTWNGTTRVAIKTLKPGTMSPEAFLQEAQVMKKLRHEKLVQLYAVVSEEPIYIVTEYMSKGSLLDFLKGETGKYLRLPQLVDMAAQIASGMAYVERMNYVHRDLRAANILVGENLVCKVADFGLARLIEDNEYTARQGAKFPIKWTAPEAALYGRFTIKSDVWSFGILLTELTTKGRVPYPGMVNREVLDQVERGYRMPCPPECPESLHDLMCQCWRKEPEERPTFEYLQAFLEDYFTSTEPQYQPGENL
Sequence of GSK3α (P49840 whole entry): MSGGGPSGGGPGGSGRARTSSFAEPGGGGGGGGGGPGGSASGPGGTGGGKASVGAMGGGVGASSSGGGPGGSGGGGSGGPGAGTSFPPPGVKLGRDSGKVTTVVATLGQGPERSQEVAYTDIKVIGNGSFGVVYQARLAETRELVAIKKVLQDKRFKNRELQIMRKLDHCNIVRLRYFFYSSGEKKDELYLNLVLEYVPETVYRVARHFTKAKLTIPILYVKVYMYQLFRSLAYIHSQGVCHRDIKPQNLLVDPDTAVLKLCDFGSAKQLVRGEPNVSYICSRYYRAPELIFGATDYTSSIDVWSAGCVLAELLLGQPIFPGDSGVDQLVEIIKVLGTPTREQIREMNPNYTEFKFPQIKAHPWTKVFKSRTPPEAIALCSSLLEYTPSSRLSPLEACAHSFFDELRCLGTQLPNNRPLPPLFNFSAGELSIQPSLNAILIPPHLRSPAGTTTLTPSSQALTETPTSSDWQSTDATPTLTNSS

Row | Structure (SMILES) | inflammatory cell infiltrate in the reticular and laminar propria zone (TNBS-induced colitis) | ulcer grade and epithelial repair compared to the vehicle control (TNBS-induced colitis) | IC50 (PBMCs [1]; [4]) [nM] | IC50 (PBMCs [1]; [5]) [nM] | IC50 (Syk) [nM] | cytokine (IL-1β, IL-6 and IL-8) release compared to the DMSO control [2] | IL-1β release [2] [%] | IL-6 release [2] [%] | IL-8 release [2] [%] | IC50 (c-Src) [nM] | IC50 (PBMCs [3]; [6]) [nM] | IC50 (PBMCs [3]; [7]) [nM] | IC50 (HT29 cells) [nM] | IC50 (p38 MAPKα) [nM] | IC50 (d-U937 cells; [8]) [nM] | IC50 (d-U937 cells; [9]) [nM] | LP inflammation (TNBS-induced colitis; 1 mg/kg) | Ulcer grade (TNBS-induced colitis; 1 mg/kg) | LP inflammation (TNBS-induced colitis; 5 mg/kg) | Ulcer grade (TNBS-induced colitis; 5 mg/kg) | also measured
1 | COCCOCCOCCOc1cc(Nc2nccc(Oc3ccc(NC(=O)Nc4cc(C(C)(C)C)nn4-c4ccc(OC)cc4)c4ccccc34)n2)cc(OC)c1 [Example 44, 1-(3-(tert-Butyl)-1-(4-methoxyphenyl)-1H-pyrazol-5-yl)-3-(4-((2-((3-methoxy-5-(2-(2-(2-methoxyethoxy)ethoxy)ethoxy)phenyl)amino)pyrimidin-4-yl)oxy)naphthalen-1-yl)urea] | marked reduction | marked improvements | 1.6 | 0.6 | 23 | significantly inhibited | 4 ± 5 | 25 ± 44 | 2 ± 2 | 10 | 1.4 | 38.5 | 1.2 | 103 | 0.6 | 0.5 |  |  |  |  | 
2 | COCCOCCOCCOCCOCCOCCOCCOc1cc(Nc2nccc(Oc3ccc(NC(=O)Nc4cc(C(C)(C)C)nn4-c4ccc(C)cc4)c4ccccc34)n2)cc(OC)c1 [Example 51, 1-(4-((2-((3-(2,5,8,11,14,17,20-Heptaoxadocosan-22-yloxy)-5-methoxyphenyl)amino)pyrimidin-4-yl)oxy)naphthalen-1-yl)-3-(3-(tert-butyl)-1-(p-tolyl)-1H-pyrazol-5-yl)urea] | marked reduction | marked improvements | 1.9 |  | 18 | significantly inhibited | 4 ± 2 | 12 ± 15 | 2 ± 1 | 10 | 1.8 | 40.7 | 1.6 | 53 | 0.4 | 0.3 | 3.1 ± 0.4 | 2.8 ± 0.5 | 2.3 ± 0.4 | 2.6 ± 0.5 | IC50 (GSK3α): 1330 nM
3 | COCCOCCOCCOc1cc(Nc2cc(Oc3ccc(NC(=O)Nc4cc(C(C)(C)C)nn4-c4ccc(C)cc4)c4ccccc34)ccn2)cc(OC)c1 [Example 56, 1-(3-(tert-Butyl)-1-(p-tolyl)-1H-pyrazol-5-yl)-3-(4-((2-((3-methoxy-5-(2-(2-(2-methoxyethoxy)ethoxy)ethoxy)phenyl)amino)pyridin-4-yl)oxy)naphthalen-1-yl)urea] | marked reduction | marked improvements | 2.4 | 1.6 | 43 | significantly inhibited | 5 ± 1 | 19 ± 18 | 3 ± 3 | 28 | 2.7 | 152 | 4.5 | 140 | 1.4 | 0.8 | 2.1 ± 0.3 | 2.3 ± 0.4 | 2.4 ± 0.3 | 3.2 ± 0.4 | 
